We go through one molecule from patent US20230172848A1, “ORAL FILM FOR SAFE ADMINISTRATION OF API” (LABTEC GMBH, priority 2020, published 2023).

For series [1] the following is noted: acceptor medium of buffer pH 7.0. As for the experimental part: The dosage unit prepared from formulation F6 were tested for ex-vivo permeation on porcine buccal mucosa in vertical Franz-cells.
For series [2] the following is noted: cited from earlier work; for required dose for induction of anesthesia: 1% solution i.v.
The conditions of series [3]: in vivo; cited from earlier work.
The conditions of series [4]: cited from earlier work.

Structures are written as SMILES. Where two headings read alike, the source gives them in different places.

In the case of `CC(C)c1cccc(C(C)C)c1O` [propofol, 2,6-diisopropylphenol], in series [1], the “concentration of saturated solution” value is reported as “about 167.8 μg/ml”. For the same molecule, the entries for the “required dose for induction of anesthesia” value in series [2] (adult patients aged less than 55 years) and in series [2] (children over 8 years) were 1.5-2.5 mg/kg body weight and “about 2.5 mg/kg body weight”, respectively. The “rate of administration that maintains the anesthetic effect” value in series [2] (adults under the age of 55) is recorded as 4-12 mg/kg body weight/h. In addition, the “rate of administration that maintains the anesthesia” value in series [2] (children over the age of 1 month) is listed as 9-15 mg/kg body weight/h. Besides, in series [3], the oral bioavailability entry is “very low”. Further, the “blood level required for the sedative effect” value in series [4] (Dhir et al., 2016) was 1.5 to 2.0 µg/mL. Also, the “average blood concentration required for anesthetic effect” value in series [4] (major surgeries) is 4.05 ± 1.01 µg/mL. Also, the “blood concentration sufficient for anesthetic effect” value in series [4] (minor surgical procedures) was 2.97 ± 1.07 µg/mL.
